biological target: T1, hNR2B (Homo sapiens, UniProt Q05586+Q13224); test: Electrophysiology NMDA receptor experiments: two electrode voltage-clamp in Xenopus laevis oocytes, hNR2B IC50; type: cell-based; details: Activity, hNR2B activity class, 50 μM glutamate, 30 μM glycine
T1 construct: expressed in transfected cells; host or cells: Xenopus laevis oocytes, cRNA-injected
T1 sequence (Q13224 27-1484, other chains not shown): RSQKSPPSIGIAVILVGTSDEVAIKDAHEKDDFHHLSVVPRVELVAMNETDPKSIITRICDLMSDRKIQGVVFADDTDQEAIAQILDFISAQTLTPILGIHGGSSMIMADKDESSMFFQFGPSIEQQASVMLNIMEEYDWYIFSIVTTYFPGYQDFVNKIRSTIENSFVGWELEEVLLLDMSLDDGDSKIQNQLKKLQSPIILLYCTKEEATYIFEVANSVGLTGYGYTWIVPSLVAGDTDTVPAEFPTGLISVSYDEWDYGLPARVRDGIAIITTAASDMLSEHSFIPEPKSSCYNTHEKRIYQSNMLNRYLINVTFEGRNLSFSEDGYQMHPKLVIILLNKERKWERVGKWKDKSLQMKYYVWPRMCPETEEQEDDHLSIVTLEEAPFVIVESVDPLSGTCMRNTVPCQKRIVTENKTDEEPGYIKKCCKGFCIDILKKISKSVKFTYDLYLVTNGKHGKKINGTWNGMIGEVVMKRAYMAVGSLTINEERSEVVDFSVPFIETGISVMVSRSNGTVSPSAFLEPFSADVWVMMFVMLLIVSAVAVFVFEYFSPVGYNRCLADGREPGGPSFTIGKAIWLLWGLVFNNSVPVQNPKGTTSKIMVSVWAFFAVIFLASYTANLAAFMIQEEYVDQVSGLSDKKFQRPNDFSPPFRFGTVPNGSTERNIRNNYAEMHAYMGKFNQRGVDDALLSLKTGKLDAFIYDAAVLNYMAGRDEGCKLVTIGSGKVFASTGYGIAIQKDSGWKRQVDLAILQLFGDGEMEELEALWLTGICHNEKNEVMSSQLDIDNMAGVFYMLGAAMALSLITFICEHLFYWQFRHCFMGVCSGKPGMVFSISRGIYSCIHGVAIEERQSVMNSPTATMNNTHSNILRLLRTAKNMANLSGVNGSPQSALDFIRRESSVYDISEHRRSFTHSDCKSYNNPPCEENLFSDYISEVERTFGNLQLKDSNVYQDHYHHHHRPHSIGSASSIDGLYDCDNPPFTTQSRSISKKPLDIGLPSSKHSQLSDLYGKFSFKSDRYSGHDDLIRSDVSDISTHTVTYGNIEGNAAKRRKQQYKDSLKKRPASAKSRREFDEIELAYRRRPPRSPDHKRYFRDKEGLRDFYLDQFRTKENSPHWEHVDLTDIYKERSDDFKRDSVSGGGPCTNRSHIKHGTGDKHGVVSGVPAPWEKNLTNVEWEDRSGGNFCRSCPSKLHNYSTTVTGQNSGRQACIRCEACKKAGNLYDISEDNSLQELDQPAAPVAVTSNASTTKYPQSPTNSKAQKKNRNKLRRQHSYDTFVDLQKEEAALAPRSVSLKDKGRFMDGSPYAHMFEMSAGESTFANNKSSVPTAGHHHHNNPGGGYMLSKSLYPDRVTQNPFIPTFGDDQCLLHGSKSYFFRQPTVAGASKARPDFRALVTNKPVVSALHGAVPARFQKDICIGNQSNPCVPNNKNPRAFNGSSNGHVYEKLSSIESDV
Protocol: Stage V and VI oocytes were surgically removed from the ovaries of large, well-fed and healthy Xenopus laevis anesthetized with 3-amino-benzoic acid ethyl ester (3 gm/l). […] Oocytes were then washed in the same solution supplemented with 1.8 mM CaCl2 and maintained in Barth's solution comprised of (in mM): 88 NaCl, 1 KCl, 2.4 NaHCO3, 10 HEPES, 0.82 MgSO4, 0.33 Ca(NO3)2, and 0.91 CaCl2 and supplemented with 100 μg/ml gentamycin, 10 μg/ml streptomycin, and 10 μg/ml penicillin.
Two electrode voltage-clamp recordings were made 2-7 days post-injection. Oocytes were placed in a dual-track plexiglass recording chamber with a single perfusion line that splits in a Y-configuration to perfuse two oocytes. Dual recordings were made at room temperature (23° C.) using two Warner OC725B two-electrode voltage clamp amplifiers, arranged as recommended by the manufacturer. Glass microelectrodes (1-10 Megaohms) were filled with 300 mM KCl (voltage electrode) or 3 M KCl (current electrode). The bath clamps communicated across silver chloride wires placed into each side of the recording chamber, both of which were assumed to be at a reference potential of 0 mV. Oocytes were perfused with a solution comprised of (in mM) 90 NaCl, 1 KCl, 10 HEPES, 10 EDTA and 0.5 BaCl2; pH 7.4, adjusted by addition of NaOH. Oocytes were recorded under voltage clamp at −40 mV. Final concentrations for glutamate and glycine were 50 μM and 30 μM, respectively. […] Dose response curves consisting of four to eight concentrations were obtained in this manner. The baseline leak current at −40 mV was measured before and after recording, and the full recording linearly corrected for any change in leak current. The level of inhibition by applied experimental compounds was expressed as a percent of the initial glutamate response, and averaged together across oocytes from multiple experiments.
For NMDA receptor subtype selectivity experiments human GluN1/GluN2A, GluN1/GluN2C, and GluN1/GluN2D cRNAs were expressed in Xenopus laevis as described above. Here, 10 μM concentrations of the antagonist was perfused with 50 μM glutamate and 30 μM glycine onto the oocyte for two min and the remaining current in the presence of the antagonist was compared to the maximal current obtained with 50 μM glutamate and 30 μM glycine alone (defined as 100%). When IC50 determinations were made against other NMDA receptor subtypes the protocol as described above was followed.

Compound `O=c1ccc2cc(OCc3nnc(NCc4ccc(Cl)nc4)o3)ccc2[nH]1` [Example 24] has an IC50 of 1000 to 10000 nM.

same assay, conditions: hNR2B IC50 (nM), voltage clamp -40 mV, 50 μM glutamate, 30 μM glycine

`O=c1ccc2cc(OCc3nnc(NCc4ccc(Cl)nc4)o3)ccc2[nH]1` [Example 24] showed an IC50 of 7240 nM.

same assay, conditions: hNR2B activity class, 50 μM glutamate, 30 μM glycine, read-out: Activity

Compared with `CC1(C)Cc2cc(OCc3nnc(Nc4ccc(Cl)c(F)c4)o3)ccc2NC1=O` [Example 83], `O=C1Cc2cc(OCc3nnc(Nc4ccc(Cl)c(Cl)c4)o3)ccc2N1` [Example 8] is lower in IC50: 1000 to 10000 nM for the first, < 200 nM for the second.

`Clc1ccc(Nc2nnc(COc3ccc4[nH]ncc4c3)o2)cc1Cl` [Example 50] and `O=c1ccc2cc(OCc3nnc(Nc4ccc(Cl)c(Cl)c4)o3)ccc2[nH]1` [Example 10] cannot be ordered by IC50: < 200 nM for the first, < 200 nM for the second.

Compared with `O=C1CCc2cc(OCc3nnc(NCc4ccc(Cl)nc4)o3)ccc2N1` [Example 25], `O=C1CCc2cc(OCc3nnc(NCc4ccc(OC(F)(F)F)cc4)o3)ccc2N1` [Example 23] is lower in IC50: > 10000 nM for the first, < 200 nM for the second.

`O=c1ccc2cc(OCc3nc(Nc4ccc(OC(F)F)c(Cl)c4)no3)ccc2[nH]1` [Example 191] and `O=c1ccc2cc(OCc3nnc(Nc4ccc(OC(F)F)c(Cl)c4)o3)ccc2[nH]1` [Example 87] cannot be ordered by IC50: < 200 nM for the first, < 200 nM for the second.

Compared with `O=c1ccc2cc(OCc3nnc(Nc4cc(Cl)ccc4Cl)o3)ccc2[nH]1` [Example 57], `O=c1ccc2cc(OCc3nnc(Nc4cccc(Cl)c4Cl)o3)ccc2[nH]1` [Example 59] is lower in IC50: > 10000 nM for the first, < 200 nM for the second. The second is the more potent here.

`O=c1ccc2cc(OCc3cc(Nc4ccc(Cl)c(F)c4)no3)ccc2[nH]1` [Example 256] and `COc1ccc(Nc2cc(COc3ccc4[nH]c(=O)ccc4c3)on2)cc1Cl` [Example 261] cannot be ordered by IC50: < 200 nM for the first, < 200 nM for the second.

`O=c1[nH]c2ccc(OCc3nnc(NCc4ccc(Cl)c(Cl)c4)o3)cc2[nH]1` [Example 112] and `O=c1[nH]c2ccc(OCc3nnc(Nc4ccc(Cl)c(Cl)c4)o3)cc2[nH]1` [Example 113] cannot be ordered by IC50: < 200 nM for the first, < 200 nM for the second.

Compared with `FC(F)Oc1ccc(Nc2noc(CCCc3ccc4[nH]ncc4c3)n2)cc1Cl` [Example 206], `FC(F)Oc1ccc(Nc2noc(CCc3ccc4cn[nH]c4c3)n2)cc1Cl` [Example 230] is lower in IC50: 1000 to 10000 nM for the first, < 200 nM for the second. The second is the more potent here.

`O=c1ccc2cc(OCc3nnc(NCc4ccccc4C(F)(F)F)o3)ccc2[nH]1` [Example 75] and `O=c1ccc2cc(OCc3nnc(NCc4ccccc4Cl)o3)ccc2[nH]1` [Example 63] fall in the same range of IC50: 1000 to 10000 nM for the first, 1000 to 10000 nM for the second.

Compared with `Cc1ccc(Nc2cc(COc3ccc4[nH]c(=O)ccc4c3)on2)cc1C` [Example 262], `Cc1cc(Nc2cc(COc3ccc4[nH]c(=O)ccc4c3)on2)ccc1OC(F)F` [Example 268] is lower in IC50: 1000 to 10000 nM for the first, < 200 nM for the second.

`O=c1ccc2cc(OCc3nnc(Nc4ccc(Cl)c(Cl)c4)s3)ccc2[nH]1` [Example 243] and `O=c1ccc2cc(OCc3nnc(Nc4ccc(Cl)cc4)s3)ccc2[nH]1` [Example 244] cannot be ordered by IC50: < 200 nM for the first, < 200 nM for the second.

First: Oc1ccc(CCc2nc(Nc3ccc(OC(F)F)c(F)c3)no2)cc1 [Example 219]
Second: Oc1ccc(CCc2nc(Nc3ccc(Cl)c(Cl)c3)no2)cc1 [Example 232]
The IC50 of the first is lower: < 200 nM for the first, 1000 to 10000 nM for the second.

First: Cc1cc(Nc2noc(CCc3ccc4[nH]ncc4c3)n2)ccc1OC(F)F [Example 214]
Second: COc1ccc(Nc2noc(CCc3ccc4[nH]ncc4c3)n2)cc1C [Example 213]
The IC50 of the first is lower: 201 to 1000 nM for the first, 1000 to 10000 nM for the second. The first is the more potent here.

`O=C1CCc2cc(CCc3nnc(Nc4ccc(OC(F)(F)F)cc4)o3)ccc2N1` [Example 134] and `O=C1CCc2cc(CCc3nnc(Nc4ccc(C(F)(F)F)cc4)o3)ccc2N1` [Example 130] cannot be ordered by IC50: < 200 nM for the first, < 200 nM for the second.

`O=c1ccc2cc(OCc3nnc(Nc4ccccc4)o3)ccc2[nH]1` [Example 34] and `Cc1cccc(Nc2nnc(COc3ccc4[nH]c(=O)ccc4c3)o2)c1` [Example 46] fall in the same range of IC50: 1000 to 10000 nM for the first, 1000 to 10000 nM for the second.

`Oc1ccc(OCc2nnc(Nc3ccc(Cl)c(Cl)c3)o2)cc1` [Example 115] and `Oc1ccc(OCc2nnc(NCc3ccc(Cl)c(Cl)c3)o2)cc1` [Example 114] cannot be ordered by IC50: < 200 nM for the first, < 200 nM for the second.

First: Oc1c(F)cc(OCc2nnc(Nc3ccc(Cl)c(Cl)c3)o2)cc1F [Example 119]
Second: O=c1cnc2cc(OCc3nnc(Nc4ccc(Cl)c(Cl)c4)o3)ccc2[nH]1 [Example 123]
The IC50 of the first is lower: 201 to 1000 nM for the first, 1000 to 10000 nM for the second.

Compared with `O=c1ccc2cc(OCc3nc(Nc4ccc(Cl)cc4)no3)ccc2[nH]1` [Example 183], `O=c1ccc2cc(OCc3nc(Nc4cccc(Cl)c4)no3)ccc2[nH]1` [Example 161] is higher in IC50: 1000 to 10000 nM for the first, > 10000 nM for the second.

Compared with `FC(F)Oc1ccc(Nc2noc(CCc3ccc4[nH]nc(Cl)c4c3)n2)cc1Cl` [Example 234], `FC(F)Oc1ccc(Nc2noc(CCc3ccc4[nH]nc(C(F)(F)F)c4c3)n2)cc1Cl` [Example 197] is higher in IC50: 1000 to 10000 nM for the first, > 10000 nM for the second. The first is the more potent here.

Compared with `O=C1CCc2cc(CCc3nnc(Nc4ccc(OC(F)F)cc4)o3)ccc2N1` [Example 133], `O=C1CCc2cc(OCc3nnc(Nc4ccc(OC(F)F)cc4)o3)ccc2N1` [Example 16] is higher in IC50: < 200 nM for the first, 201 to 1000 nM for the second.

`O=c1ccc2cc(CCc3nnc(Nc4ccc(OC(F)(F)F)c(Cl)c4)o3)ccc2[nH]1` [Example 137] and `Cc1ccc(Nc2nnc(COc3ccc4[nH]c(=O)ccc4c3)o2)cc1Cl` [Example 92] cannot be ordered by IC50: < 200 nM for the first, < 200 nM for the second.

`FC(F)Oc1ccc(Nc2cc(COc3ccc4[nH]ncc4c3)on2)cc1` [Example 275] and `Cc1ccc(Nc2cc(COc3ccc4[nH]ncc4c3)on2)cc1F` [Example 271] cannot be ordered by IC50: < 200 nM for the first, < 200 nM for the second.

`Oc1ccc(CCc2nc(Nc3ccc(OC(F)(F)F)cc3)no2)cc1` [Example 224] and `Oc1ccc(CCc2nc(Nc3ccc(C(F)(F)F)cc3)no2)cc1` [Example 223] fall in the same range of IC50: 201 to 1000 nM for the first, 201 to 1000 nM for the second.

Compared with `Fc1cc(Nc2noc(CCc3ccc4cn[nH]c4c3)n2)ccc1Cl` [Example 227], `CCc1ccc(Nc2noc(CCc3ccc4[nH]ncc4c3)n2)cc1F` [Example 215] is lower in IC50: > 10000 nM for the first, < 200 nM for the second. The second is the more potent here.

First: Cc1ccc(Nc2nnc(COc3ccc4[nH]c(=O)ccc4c3)o2)cc1 [Example 45]
Second: O=c1ccc2cc(OCc3nnc(Nc4ccc(OC(F)(F)F)cc4)o3)ccc2[nH]1 [Example 13]
The IC50 of the first is higher: 201 to 1000 nM for the first, < 200 nM for the second. The second is the more potent here.

Compared with `COc1ccc(Nc2noc(COc3ccc4[nH]c(=O)ccc4c3)n2)cc1F` [Example 166], `O=c1ccc2cc(OCc3nnc(Nc4cccc(F)c4)o3)ccc2[nH]1` [Example 39] is higher in IC50: < 200 nM for the first, 1000 to 10000 nM for the second.

`O=c1ccc2cc(OCc3nnc(NCc4cccc(F)c4)o3)ccc2[nH]1` [Example 68] and `O=c1ccc2cc(OCc3nnc(NCc4ccc(Cl)cc4F)o3)ccc2[nH]1` [Example 67] fall in the same range of IC50: 201 to 1000 nM for the first, 201 to 1000 nM for the second.

First: O=c1ccc2cc(C3CC3c3nnc(Nc4ccc(OC(F)F)c(Cl)c4)o3)ccc2[nH]1 (stereo not shown) [Example 155]
Second: Cc1cc(Nc2noc(C3CC3c3ccc4[nH]ncc4c3)n2)ccc1OC(F)F (stereo not shown) [Example 236]
The IC50 of the first is lower: < 200 nM for the first, 201 to 1000 nM for the second.

`O=c1ccc2cc(OCc3nnc(NCc4ccc(OC(F)(F)F)cc4)o3)ccc2[nH]1` [Example 26] and `O=c1ccc2cc(OCc3nnc(NCc4ccc(OC(F)F)cc4)o3)ccc2[nH]1` [Example 27] cannot be ordered by IC50: < 200 nM for the first, < 200 nM for the second.

`O=c1ccc2cc(OCc3cc(Nc4ccc(C(F)(F)F)c(Cl)c4)no3)ccc2[nH]1` [Example 269] and `O=c1ccc2cc(OCc3cc(Nc4ccc(C(F)(F)F)cc4)no3)ccc2[nH]1` [Example 264] cannot be ordered by IC50: < 200 nM for the first, < 200 nM for the second.

`FC(F)Oc1ccc(Nc2noc(CCNc3ncnc4[nH]ncc34)n2)cc1Cl` [Example 207] and `Cn1c(CCNc2ncnc3[nH]ncc23)nnc1Nc1ccc(OC(F)F)cc1` [Example 280] cannot be ordered by IC50: < 200 nM for the first, < 200 nM for the second.

Compared with `O=c1ccc2cc(OCc3nnc(Nc4cccc(Oc5ccccc5)c4)o3)ccc2[nH]1` [Example 89], `O=c1ccc2cc(OCc3nnc(Nc4ccc(Oc5ccccc5)cc4)o3)ccc2[nH]1` [Example 91] is higher in IC50: 201 to 1000 nM for the first, 1000 to 10000 nM for the second. The first is the more potent here.

First: Oc1ccc(OCc2nc(Nc3ccc(C(F)(F)F)cc3)no2)cc1 [Example 185]
Second: O=C1CCc2cc(OCc3nc(Nc4ccc(OC(F)(F)F)cc4)no3)ccc2N1 [Example 179]
The IC50 of the first is higher: 1000 to 10000 nM for the first, 201 to 1000 nM for the second. The second is the more potent here.

First: Oc1cccc(Cc2nnc(Nc3ccc(Cl)c(Cl)c3)o2)c1 [Example 147]
Second: O=c1ccc2cc(OCc3nnc(Nc4ccccc4Cl)o3)ccc2[nH]1 [Example 41]
The IC50 of the first is lower: 1000 to 10000 nM for the first, > 10000 nM for the second.

Compared with `O=c1cnc2cc(OCc3nnc(Nc4ccc(C(F)(F)F)cc4)o3)ccc2[nH]1` [Example 124], `O=C1CCc2cc(OCc3nnc(Nc4ccc(Cl)cc4)[nH]3)ccc2N1` [Example 283] is lower in IC50: 1000 to 10000 nM for the first, 201 to 1000 nM for the second. The second is the more potent here.

Work on `O=C1CCc2cc(OCc3nc(Nc4ccc(OC(F)F)cc4)no3)ccc2N1` [Example 186] yielded an IC50 of 201 to 1000 nM.

same assay, conditions: voltage clamp -40 mV, 50 μM glutamate, 30 μM glycine, read-out: hNR2B IC50

`Cn1c(COc2ccc3[nH]c(=O)ccc3c2)nnc1Nc1ccc(OC(F)F)cc1` [Example 278] and `O=c1ccc2cc(OCc3nnc(Nc4ccc(OC(F)F)cc4)o3)ccc2[nH]1` [Example 17] are within 1.5-fold of each other in IC50: 90 nM for the first, 80 nM for the second.

Compared with `COc1ccc(Nc2noc(COc3ccc4[nH]c(=O)ccc4c3)n2)cc1Cl` [Example 167], `O=c1ccc2cc(CCc3nc(Nc4ccc(OC(F)F)c(Cl)c4)no3)ccc2[nH]1` [Example 208] is 27-fold lower in IC50: 300 nM for the first, 11 nM for the second.

Compared with `Cc1cc(Nc2noc(C3CC3c3ccc4[nH]c(=O)ccc4c3)n2)ccc1OC(F)F` (stereo not shown) [Example 235, 6-(2-(3-((4-(difluoromethoxy)-3-methylphenyl)amino)-1,2,4-oxadiazol-5-yl)cyclopropyl)quinolin-2(1H)-one], `O=c1ccc2cc(OCc3nnc(Nc4cccc(Cl)c4)o3)ccc2[nH]1` [Example 58] is 19-fold higher in IC50: 44 nM for the first, 830 nM for the second. The first is the more potent here.

Going from `O=c1ccc2cc(OCc3nnc(Nc4ccc(Cl)cc4)[nH]3)ccc2[nH]1` [Example 282] to `O=c1ccc2cc(OCc3nnc(NCc4ccc(Cl)nc4)s3)ccc2[nH]1` [Example 251], the IC50 rises from 290 nM to 9400 nM (32-fold).

Going from `Fc1cc(Nc2nnc(CCCc3ccc4[nH]ncc4c3)o2)ccc1Cl` [Example 146] to `O=C1CCc2cc(OCc3nnc(Nc4ccc(Cl)cc4)o3)ccc2N1` [Example 1, 6-((5-(4-chlorophenylamino)-1,3,4-oxadiazol-2-yl)methoxy)-3,4-dihydroquinolin-2(1H)-one], the IC50 rises from 230 nM to 715 nM (3.1-fold). The first is the more potent here.

`O=C1CCc2cc(OCc3nnc(Nc4ccc(Cl)c(Cl)c4)s3)ccc2N1` [Example 240] and `O=C1CCc2cc(OCc3nnc(Nc4ccc(Br)cc4)o3)ccc2N1` [Example 4] are within 1.5-fold of each other in IC50: 266 nM for the first, 265 nM for the second.
